Here are results for ten molecules from patent US20260137698A1, “CYCLIN-DEPENDENT KINASE 7 INHIBITORS” (JOINT STOCK COMPANY «BIOCAD», priority 2022, published 2026).

One data set concerns the target CDK13/Cyclin K (Homo sapiens, UniProt Q14004). Put plainly: Inhibition of CDK13/Cyclin K kinase activity (ADP-Glo). It is filed as biochemical. As to the method: Measurements were carried out in a 5 μl reaction volume using a 384-well plate (Corning Inc., order no. 4513). The analyzed substances were titrated from 50 μM in increments of 4 at 11 concentration points in a normal strength kinase buffer A (Thermo Fisher Scientific Inc, cat. no. PV3189) supplemented with DTT (Sigma, orde. no. 646563-10X.5ML) and prepared with water (Panreac, order no. 701074). Kinase was diluted in an analogous buffer, mixed with test compounds in plate wells and preincubated for 10 minutes at 25° C. Following incubation, a mixture of reaction substrate (CDKtide (SignalChem, order no. C06-58) or Histone H1 (SignalChem, order no. H10-54N) or PDKtide (SignalChem, order no. P10-58) and ATP (SignalChem, order no. V915B) prepared on a normal strength kinase buffer A was added. 1% solution of dimethyl sulfoxide (DMSO) (Sigma-Aldrich, order no. D2438) in the reaction volume was used as a negative control. The final concentrations of all reaction components are shown in Table 5. The plate was centrifuged at 400 rcf (Eppendorf, 5804 R) for 1 minute and incubated for 40-60 minutes at 25° C. The amount of ATP consumed in the kinase reaction was then measured using the ADP-Glo™ detection system. Luminescence signal was measured using Spark 20M tablet multifunction reader (Tecan Group Ltd, Switzerland). IC50 value was calculated using Magellan 7.2 (Tecan Group Ltd, Switzerland) by approximating experimental points by four-parameter model with the optimization by Levenberg-Marquardt:
[formula] • where A is the upper asymptote; D is the lower asymptote; C is IC50, half-maximal inhibitory concentration of kinase, nM; B is the curvature (slope).
In general terms: In ADP-Glo the light output rises with the ADP produced.

Data set [1] can be described thus: Microsomal stability in rat liver microsomes (RLM). The data set is classed as in vitro ADME. As to conditions: rat liver microsomes 0.5 mg/ml, 1 μM compound, NADPH. As for the experimental part: (§1) The procedure for investigating the metabolism of selected compounds was carried out in microsomal fractions of the liver (of rats, mice, humans) in the presence of a phase I metabolism cofactor (NADPH).
(§2) The rate of enzymatic decomposition of the compound in liver microsomes in in vitro analysis was determined by keeping a reaction mixture comprising 0.5 mg/ml of pooled human, rat or mouse liver microsomes, 1 μM test compound, 1.5 mM […] (Carbosynth, UK, cat. no. NN108711101) and 1.5 mM magnesium chloride in 0.1 M sodium phosphate buffer (pH 7.4) in a solid-state thermostat at 37° C. (XenoTech, USA, order no. H2610, cat. no. R1000, cat. no. M1000). Incubation was carried out in three replicates.
(§3) To determine the stability of compounds under sample preparation conditions, an aliquot in two replicates with the test compound and a microsomal fraction devoid of the NADPH cofactor, which was incubated for 40 minutes at 37° C.
(§4) Reactions were stopped at 0, 10, 20, 30 and 40 min time points by way of adding an ice mixture of acetonitrile:methanol (3:1) comprising an internal standard.
(§5) Samples were then centrifuged to remove the precipitated protein, supernatants were analyzed using HPLC-MS/MS to determine in vitro clearance (CLint) of the compounds. The Agilent 6410 mass spectrometer (Agilent, USA) combined with the Agilent 1260 Infinity II HPLC liquid chromatograph (Agilent, USA) and a cooling autosampler controlled by MassHunter software (Agilent, USA) was used as an HPLC-MS/MS system. Chromatographic analysis was performed on a C18 reversed-phase HPLC column (Agilent, Waters or equivalent) in a gradient elution mode in a system of mobile phases: 0.1% formic acid in water/0.1% formic acid in acetonitrile, flow rate: 0.5 ml/min, column T=35° C. Mass spectrometric detection was performed with electrospray ionization in multiple reaction monitoring mode. Precursor ions, fragment ions and collision energies for each substance were selected experimentally.
(§6) A graph of dependence of the logarithmic ratio between substance's peak area and internal standard's peak area vs time was built. The dependent coefficient of this line corresponded to the elimination rate constant k, on the basis of which the in vitro clearance CLint was calculated:
(§7) Based on resulting in vitro clearance CLint values, the microsomal stability of the selected compounds for humans, rats and mice was concluded.

The nature of data set [2]: Microsomal stability in mouse liver microsomes (MLM). Conditions: mouse liver microsomes 0.5 mg/ml, 1 μM compound, NADPH. The data set is classed as in vitro ADME. As to the method: as §1, §2, §3, §4, §5, §6, §7
A general note: Microsomes from liver hold many membrane-bound enzymes, among them those of drug oxidation.

Setting [3] is: mean of multiple measurement series, ATP 10 μM, read-out: CDK13/Cyclin K IC50.
The mark [4] stands for this setting: mean value from several measurements, read-out: IC50 CDK13/Cyclin K.

The structures appear in SMILES notation. Read-outs that look alike come from different tables or passages of the source.

CDK13/Cyclin K, sequence (Q14004 whole entry): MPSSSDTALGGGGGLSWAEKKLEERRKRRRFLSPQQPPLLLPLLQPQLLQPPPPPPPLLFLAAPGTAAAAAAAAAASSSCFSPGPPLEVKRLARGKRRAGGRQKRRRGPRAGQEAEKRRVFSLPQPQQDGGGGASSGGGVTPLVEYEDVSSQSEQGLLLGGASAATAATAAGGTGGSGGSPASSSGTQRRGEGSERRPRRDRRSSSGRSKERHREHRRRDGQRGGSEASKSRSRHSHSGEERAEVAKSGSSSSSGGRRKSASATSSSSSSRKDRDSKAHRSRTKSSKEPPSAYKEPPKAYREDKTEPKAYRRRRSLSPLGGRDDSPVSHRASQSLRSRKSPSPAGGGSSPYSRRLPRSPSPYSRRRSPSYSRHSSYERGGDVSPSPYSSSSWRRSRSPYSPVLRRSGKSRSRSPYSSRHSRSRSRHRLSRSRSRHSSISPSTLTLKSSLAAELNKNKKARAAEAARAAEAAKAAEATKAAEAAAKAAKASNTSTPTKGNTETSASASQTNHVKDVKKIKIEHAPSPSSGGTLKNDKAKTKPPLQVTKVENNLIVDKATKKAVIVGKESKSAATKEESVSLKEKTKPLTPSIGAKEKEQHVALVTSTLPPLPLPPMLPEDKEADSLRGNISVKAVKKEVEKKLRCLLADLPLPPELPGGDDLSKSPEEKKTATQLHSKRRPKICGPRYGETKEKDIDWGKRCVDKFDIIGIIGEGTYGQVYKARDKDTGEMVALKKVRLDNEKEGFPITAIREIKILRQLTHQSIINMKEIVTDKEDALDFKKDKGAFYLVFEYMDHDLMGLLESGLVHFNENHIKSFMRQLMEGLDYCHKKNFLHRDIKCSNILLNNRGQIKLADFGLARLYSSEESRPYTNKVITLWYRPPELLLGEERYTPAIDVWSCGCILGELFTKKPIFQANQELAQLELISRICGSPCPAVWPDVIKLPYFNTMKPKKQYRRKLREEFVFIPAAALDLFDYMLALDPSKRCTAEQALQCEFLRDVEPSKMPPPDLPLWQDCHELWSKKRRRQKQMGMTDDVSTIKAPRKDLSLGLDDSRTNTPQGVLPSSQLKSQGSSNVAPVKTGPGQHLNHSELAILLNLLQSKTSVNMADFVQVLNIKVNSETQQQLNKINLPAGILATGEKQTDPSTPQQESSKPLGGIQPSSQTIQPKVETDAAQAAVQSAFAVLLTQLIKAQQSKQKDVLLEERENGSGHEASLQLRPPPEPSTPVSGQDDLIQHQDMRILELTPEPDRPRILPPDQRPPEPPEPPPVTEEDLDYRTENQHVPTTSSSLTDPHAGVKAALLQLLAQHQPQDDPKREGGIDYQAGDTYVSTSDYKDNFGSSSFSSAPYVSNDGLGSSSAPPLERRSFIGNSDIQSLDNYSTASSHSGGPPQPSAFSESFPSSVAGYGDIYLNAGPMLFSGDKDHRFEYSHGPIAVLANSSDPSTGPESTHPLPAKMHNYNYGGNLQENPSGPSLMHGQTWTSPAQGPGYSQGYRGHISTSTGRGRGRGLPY
CDK13/Cyclin K, sequence (O75909 whole entry partner): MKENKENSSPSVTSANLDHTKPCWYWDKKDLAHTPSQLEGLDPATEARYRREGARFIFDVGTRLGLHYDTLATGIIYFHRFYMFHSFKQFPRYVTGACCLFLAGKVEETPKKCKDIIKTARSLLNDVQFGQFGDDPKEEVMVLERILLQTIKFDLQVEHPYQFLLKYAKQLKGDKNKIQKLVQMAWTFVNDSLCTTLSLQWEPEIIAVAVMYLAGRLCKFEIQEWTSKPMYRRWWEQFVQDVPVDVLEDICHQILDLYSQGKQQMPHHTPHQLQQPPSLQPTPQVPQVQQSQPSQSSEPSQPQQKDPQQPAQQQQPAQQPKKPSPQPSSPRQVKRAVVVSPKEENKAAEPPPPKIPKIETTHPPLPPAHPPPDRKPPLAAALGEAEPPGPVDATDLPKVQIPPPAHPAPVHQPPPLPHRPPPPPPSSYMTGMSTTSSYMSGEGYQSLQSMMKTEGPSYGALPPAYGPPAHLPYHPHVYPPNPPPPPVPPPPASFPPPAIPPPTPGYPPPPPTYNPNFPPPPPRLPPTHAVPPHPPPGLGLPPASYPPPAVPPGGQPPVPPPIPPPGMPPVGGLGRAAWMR

With `CC(C)N1CCCc2c(-c3nc(N[C@H]4CCC(C)(C)NC4)ncc3C(F)(F)F)c[nH]c2C1=O` [CDK7_1229, 3-(2-{[(3S)-6,6-dimethylpiperidin-3-yl]amino}-5-(trifluoromethyl)py-rimidin-4-yl)-7-(propan-2-yl)-1H,4H,5H,6H,7H, 8H-pyrrolo[2,3-c]azepin-8-one], the IC50 is 242 nM on CDK13/Cyclin K (setting [3]) and above 200 nM on CDK13/Cyclin K (setting [4]). Moreover, in data set [1], the “RLM Clint” value is on record as “A (Clint < 20 μl/(min · mg of protein))”. The “MLM Clint” value in data set [2] is on record as “A (Clint < 20 μl/(min · mg of protein))”.
As for `CC(C)N1CCCc2c(-c3nc(N[C@H]4CCC5(CC5)NC4)ncc3C(F)(F)F)c[nH]c2C1=O` [CDK7_1277, 3-(2-{[(6S)-4-azaspiro[2.5]octan-6-yl]amino}-5-(trifluoromethyl)py-rimidin-4-yl)-7-(propan-2-yl)-1H,4H,5H,6H,7H, 8H-pyrrolo[2,3-c]azepin-8-one], the IC50 at CDK13/Cyclin K (setting [3]) is 425 nM; on CDK13/Cyclin K (setting [4]) it was above 200 nM. In addition, in data set [1], the “RLM Clint” value is reported as “B (50 μl/(min · mg of protein) > Clint > 20 μl/(min · mg of protein))”. The “MLM Clint” value in data set [2] is given as “B (50 μl/(min · mg of protein) > Clint > 20 μl/(min · mg of protein))”.
Turning to `O=C1c2[nH]cc(-c3nc(N[C@H]4CCC5(CC5)NC4)ncc3C(F)(F)F)c2CCCN1C1CC1` [CDK7_1276, 3-(2-{[(6S)-4-azaspiro[2.5]octan-6-yl]amino}-5-(trifluoromethyl)py-rimidin-4-yl)-7-cyclopropyl-1H,4H,5H,6H,7H, 8H-pyrrolo[2,3-c]azepin-8-one], the IC50 at CDK13/Cyclin K (setting [3]) is 152 nM; at CDK13/Cyclin K (setting [4]), 50 to 200 nM. Further, the “RLM Clint” value in data set [1] is “B (50 μl/(min · mg of protein) > Clint > 20 μl/(min · mg of protein))”. Further, the “MLM Clint” value in data set [2] is on record as “B (50 μl/(min · mg of protein) > Clint > 20 μl/(min · mg of protein))”.
Regarding `O=C1c2[nH]cc(-c3nc(NC4CCCNC4)ncc3C(F)(F)F)c2CCCN1C1CC1` (centres unmarked) [CDK7_1188], the “RLM Clint” value in data set [1] is listed as “A (Clint < 20 μl/(min · mg of protein))”.
The same measure, in the same setting: to `CC1(C)CC[C@H](Nc2ncc(C(F)(F)F)c(-c3c[nH]c4c3CCCN(CC3CC3)C4=O)n2)CN1` [CDK7_1227, 7-(cyclopropylmeth-yl)-3-(2-{[(3S)-6,6-dimethylpiperidin-3-yl]amino}-5-(trifluoromethyl)py-rimidin-4-yl)-1H,4H,5H,6H,7H, 8H-pyrrolo[2,3-c]azepin-8-one] belongs “A (Clint < 20 μl/(min · mg of protein))”.
On to `CN1CCCc2c(-c3nc(N[C@H]4CCCNC4)ncc3C(F)(F)F)c[nH]c2C1=O` [CDK7_953, 7-methyl-3-(2-{[(3S)-piperidin-3-yl]amino}-5-(trifluoromethyl)py-rimidin-4-yl)-1H,4H,5H,6H,7H, 8H-pyrrolo[2,3-c]azepin-8-one], for which the IC50 at CDK13/Cyclin K (setting [3]) was 20 nM; at CDK13/Cyclin K (setting [4]), 5 to 50 nM. In addition, the “RLM Clint” value in data set [1] is given as “A (Clint < 20 μl/(min · mg of protein))”. In data set [2], the “MLM Clint” value was “A (Clint < 20 μl/(min · mg of protein))”.
As for `Cn1cc(-n2ccc3c(-c4nc(N[C@H]5CCC(C)(C)NC5)ncc4C(F)(F)F)c[nH]c3c2=O)cn1` [CDK7_1123, 3-(2-{[(3S)-6,6-dimethylpiperidin-3-yl]amino}-5-(trifluoromethyl)py-rimidin-4-yl)-6-(1-methyl-1H-pyrazol-4-yl)-1H,6H,7H-pyrrolo[2,3-c]pyridin-7-one], the IC50 was 25 nM at CDK13/Cyclin K (setting [3]) and 5 to 50 nM at CDK13/Cyclin K (setting [4]).
As to `CN1CCCc2c(-c3nc(N[C@H]4CCC(C)(C)NC4)ncc3C(F)(F)F)c[nH]c2C1=O` [CDK7_1187, 3-(2-{[(3S)-6,6-dimethylpiperidin-3-yl]amino}-5-(trifluoromethyl)py-rimidin-4-yl)-7-methyl-1H,4H,5H,6H,7H, 8H-pyrrolo[2,3-c]azepin-8-one], the IC50 on CDK13/Cyclin K (setting [3]) is 81 nM; at CDK13/Cyclin K (setting [4]) it was 50 to 200 nM. Besides, the “RLM Clint” value in data set [1] is recorded as “A (Clint < 20 μl/(min · mg of protein))”. For the same molecule, the “MLM Clint” value in data set [2] is “A (Clint < 20 μl/(min · mg of protein))”.
For `CC1(C)CC[C@H](Nc2ncc(C(F)(F)F)c(-c3c[nH]c4c3CCCN(C3CC3)C4=O)n2)CN1` [CDK7_1225, 7-cyclopropyl-3-(2-{[(3S)-6,6-dimethylpiperidin-3-yl]amino}-5-(trifluoromethyl)py-rimidin-4-yl)-1H,4H,5H,6H,7H, 8H-pyrrolo[2,3-c]azepin-8-one], the IC50 on CDK13/Cyclin K (setting [3]) is 203 nM; at CDK13/Cyclin K (setting [4]) it was above 200 nM. Further, the “RLM Clint” value in data set [1] is on record as “A (Clint < 20 μl/(min · mg of protein))”. Further, the “MLM Clint” value in data set [2] is “A (Clint < 20 μl/(min · mg of protein))”.
Take `CCN1CCCc2c(-c3nc(N[C@H]4CCC(C)(C)NC4)ncc3C(F)(F)F)c[nH]c2C1=O` [CDK7_1259, 3-(2-{[(3S)-6,6-dimethylpiperidin-3-yl]amino}-5-(trifluoromethyl)py-rimidin-4-yl)-7-ethyl-1H,4H,5H,6H,7H, 8H-pyrrolo[2,3-c]azepin-8-one]: the “RLM Clint” value in data set [1] was “A (Clint < 20 μl/(min · mg of protein))”.
